Source: US20260355192A1, “PROPHYLACTIC OR THERAPEUTIC AGENT FOR PERIOSTIN-MEDIATED DISEASE AND PRURITUS ASSOCIATED THEREWITH” (SAGA UNIVERSITY, priority 2022, published 2026)

B1: nemolizumab: anti-IL-31 receptor antibody (antibody, chains of the INN, looked up)
heavy: QVQLVQSGAEVKKPGASVKVSCKASGYTFTGYIMNWVRQAPGQGLEWMGLINPYNGGTDYNPQFQDRVTITADKSTSTAYMELSSLRSEDTAVYYCARDGYDDGPYTLETWGQGTLVTVSSASTKGPSVFPLAPSSKSTSGGTAALGCLVKDYFPEPVTVSWNSGALTSGVHTFPAVLQSSGLYSLSSVVTVPSSNFGTQTYTCNVDHKPSNTKVDKTVERKSCVECPPCPAPPVAGPSVFLFPPKPKDTLMISRTPEVTCVVVDVSQEDPEVQFNWYVDGVEVHNAKTKPREEQFNSTFRVVSVLTVVHQDWLNGKEYKCKVSNKGLPAPIEKTISKTKGQPREPQVYTLPPSQEEMTKNQVSLTCLVKGFYPSDIAVEWESNGQPENNYKTTPPMLDSDGSFFLYSKLTVDKSRWQEGNVFSCSVMHEALHNHYTQKSLSLSP
light: DIQMTQSPSSLSASVGDRVTITCQASEDIYSFVAWYQQKPGKAPKLLIYNAQTEAQGVPSRFSGSGSGTDFTLTISSLQPEDFATYYCQHHYDSPLTFGGGTKVEIKRTVAAPSVFIFPPSDEQLKSGTASVVCLLNNFYPREAKVQWKVDNALQSGNSQESVTEQDSKDSTYSLSSTLTLSKADYEKHKVYACEVTHQGLSSPVTKSFNRGEC

Legend:
[1] = system: scratching behaviors in FADS mice; experiment: Scratching behaviors in FADS mice upon single systemic administration of αvβ3 integrin inhibitors; type: in vivo, mouse (FADS, Nestin-cre/Ikk2ff); details: for % Change from baseline in the number of scratchings (mean ± standard error): 53.7 μmol/kg i.p., single, 60 minutes after administration vs before administration; for grade of effect on % change from the baseline in the number of scratchings: single i.p., 53.7 μmol/kg (GLPG-0187 5.37 μmol/kg), paired t-test
Source text: Nestin-cre transgenic mice were crossed with IKK2^ff mice to prepare Nestin-cre/Ikk2^ff mice specifically lacking IKK2 in their facial skin fibroblasts (Nunomura S, et al. J Invest Dermatol. 139:1274-1283, 2019). These mice inevitably develop atopic dermatitis-like rash limited to the face and intense itchy symptoms, and were therefore designated as Facial Atopic Dermatitis with Scratching (FADS) mice. […] For evaluation of the prophylactic or therapeutic agent of the present invention, FADS mice at 3 to 4 weeks of age or older were used because of showing spontaneous scratching behaviors. It should be noted that in this Example section, the above compound of formula (I) (more particularly “CP4715”) was used as the prophylactic or therapeutic agent of the present invention.
FADS mice were acclimated for 20 minutes to the environment of a recording cage, and then recorded with a video camera. The recorded videos were replayed, and scratching behaviors were counted assuming that hind paw scratching to the face and the subsequent movement of toe licking or paw lowering to the ground were regarded as one cycle of scratching behavior.
Prior to the administration of the above αvβ3 integrin inhibitors, FADS mice were recorded for 60 minutes with a video camera and then allowed to rest for 15 minutes. The compounds except for GLPG-0187 were each dissolved at 89.5 mM in a diluent (physiological saline containing 50% DMSO and 89.5 mM HCL), from which an amount corresponding to 53.7 μmol/kg per mouse was then taken and diluted with 0.3 mL of PBS, and then administered intraperitoneally. […] Mice administered with 0.3 mL of PBS containing an equal amount of the diluent as calculated based on the body weight were used as a control group.
The mice were recorded for 60 minutes with a video camera immediately after administration of the above αvβ3 integrin inhibitors. The number of scratchings before administration was used as a baseline, and % change from the baseline after administration was calculated for each compound. For statistical analysis, paired t-test was used. A P-value of less than 0.05 was considered to be statistically significant. The effect of an inhibitor whose mean change from the baseline was −65% or more at a P-value of less than 0.01 was expressed as “++”; the effect of an inhibitor whose mean change from the baseline was −60% or less at a P-value of less than 0.05 was expressed as “+”; and the effect of an inhibitor whose mean change from the baseline was −60% or less at a P-value of 0.05 or higher was expressed as “−.”

integrin αvβ3 [2] = target: T1, integrin αvβ3 (Homo sapiens, UniProt P05106+P06756); experiment: Inhibition of periostin-dependent adhesion of SW480 cells expressing integrin αvβ3; type: cell-based; details: immobilized recombinant human periostin, FIG. 6; for IC50: SW480 cells expressing human integrin β3, compounds at 0.001-1 μM, read-out: 50% inhibition concentration (IC50 value) for cell adhesion inhibitory activity; for cell adhesion inhibitory effect (in words): SW480 cells expressing integrin αvβ3
T1 construct: SW480 cells, a human colon cancer cell line not expressing integrin β3; expressed in transfected cells; host or cells: SW480 cells (human colon cancer) stably expressing human integrin β3
Protocol: For use in cell adhesion experiments, SW480 cells, a human colon cancer cell line not expressing integrin β3, were genetically engineered to stably express human integrin β3 (Nanri Y, et al. Am J Respir Cell Mol Biol. 62:204-216, 2020). The compounds shown in Table 1 were examined for their inhibitory activity against adhesion between integrin αvβ3 and periostin according to the following procedures. First, a 96-well plate was treated with 10 μg/mL recombinant human periostin (Bio-Techne) at 4 °C for 16 hours to immobilize periostin. The SW480 cells expressing integrin αvβ3 (5×10^4 cells) were reacted at room temperature for 15 minutes with the above compounds at 0.001, 0.01, 0.1 and 1 μM in serum-free DMEM (Dulbecco's Modified Eagle Medium) containing 0.5% bovine serum albumin and 0.25 mM MnCl2. A group receiving no compound was used as a control. The reacted cell suspensions were added to separate wells of the above human periostin-immobilized plate, and the plate was centrifuged at 10×g for 5 minutes and then cultured at 37 °C for 60 minutes. Then, after the adhered cells were washed to remove unbound cells, the adhered cells were fixed with 1% formaldehyde and stained with 0.5% crystal violet. The fixed and stained cells were solubilized with 0.2% Triton X-100 and measured for absorbance at 595 nm. The absorbance of the control (i.e., the group receiving no compound) was set to 0% inhibition. […] Cell adhesion in this test system is periostin-dependent, and a compound inhibiting this cell adhesion can be referred to as a periostin receptor antagonist.

integrin αvβ3 [3] = details: cited from earlier work
IL-31 receptor = details: Kabashima K, et al. N Engl J Med. 383:141-150, 2020; cited from earlier work

T1 sequence (P06756 31-889 limits assumed): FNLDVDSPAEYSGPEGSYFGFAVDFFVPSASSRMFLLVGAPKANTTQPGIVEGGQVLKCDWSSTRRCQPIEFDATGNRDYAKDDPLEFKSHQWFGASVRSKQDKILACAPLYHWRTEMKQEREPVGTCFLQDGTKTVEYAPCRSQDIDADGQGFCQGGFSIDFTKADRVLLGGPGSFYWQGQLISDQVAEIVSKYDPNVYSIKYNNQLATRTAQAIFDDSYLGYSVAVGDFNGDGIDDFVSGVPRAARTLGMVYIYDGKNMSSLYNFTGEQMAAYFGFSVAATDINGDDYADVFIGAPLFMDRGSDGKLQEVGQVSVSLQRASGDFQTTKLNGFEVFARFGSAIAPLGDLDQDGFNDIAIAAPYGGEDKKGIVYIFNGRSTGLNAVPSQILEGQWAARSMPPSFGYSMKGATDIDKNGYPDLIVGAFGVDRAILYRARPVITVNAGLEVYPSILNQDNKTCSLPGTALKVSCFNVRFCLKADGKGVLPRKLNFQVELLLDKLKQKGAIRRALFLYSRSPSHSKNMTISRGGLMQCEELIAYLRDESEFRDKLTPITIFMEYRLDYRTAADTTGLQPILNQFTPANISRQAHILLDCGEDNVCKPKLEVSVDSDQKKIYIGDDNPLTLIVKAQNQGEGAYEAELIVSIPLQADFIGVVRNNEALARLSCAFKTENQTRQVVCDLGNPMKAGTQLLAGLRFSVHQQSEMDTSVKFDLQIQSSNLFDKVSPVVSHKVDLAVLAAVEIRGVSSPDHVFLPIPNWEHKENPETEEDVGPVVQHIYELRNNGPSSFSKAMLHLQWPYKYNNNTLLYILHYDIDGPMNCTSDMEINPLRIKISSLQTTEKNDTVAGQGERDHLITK
T1 sequence (P06756 891-1048 partner limits assumed): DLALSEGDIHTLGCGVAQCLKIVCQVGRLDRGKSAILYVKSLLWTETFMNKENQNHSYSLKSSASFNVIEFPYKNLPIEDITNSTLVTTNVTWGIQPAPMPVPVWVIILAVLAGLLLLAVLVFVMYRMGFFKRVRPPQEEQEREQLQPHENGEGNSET
T1 sequence (P05106 27-788): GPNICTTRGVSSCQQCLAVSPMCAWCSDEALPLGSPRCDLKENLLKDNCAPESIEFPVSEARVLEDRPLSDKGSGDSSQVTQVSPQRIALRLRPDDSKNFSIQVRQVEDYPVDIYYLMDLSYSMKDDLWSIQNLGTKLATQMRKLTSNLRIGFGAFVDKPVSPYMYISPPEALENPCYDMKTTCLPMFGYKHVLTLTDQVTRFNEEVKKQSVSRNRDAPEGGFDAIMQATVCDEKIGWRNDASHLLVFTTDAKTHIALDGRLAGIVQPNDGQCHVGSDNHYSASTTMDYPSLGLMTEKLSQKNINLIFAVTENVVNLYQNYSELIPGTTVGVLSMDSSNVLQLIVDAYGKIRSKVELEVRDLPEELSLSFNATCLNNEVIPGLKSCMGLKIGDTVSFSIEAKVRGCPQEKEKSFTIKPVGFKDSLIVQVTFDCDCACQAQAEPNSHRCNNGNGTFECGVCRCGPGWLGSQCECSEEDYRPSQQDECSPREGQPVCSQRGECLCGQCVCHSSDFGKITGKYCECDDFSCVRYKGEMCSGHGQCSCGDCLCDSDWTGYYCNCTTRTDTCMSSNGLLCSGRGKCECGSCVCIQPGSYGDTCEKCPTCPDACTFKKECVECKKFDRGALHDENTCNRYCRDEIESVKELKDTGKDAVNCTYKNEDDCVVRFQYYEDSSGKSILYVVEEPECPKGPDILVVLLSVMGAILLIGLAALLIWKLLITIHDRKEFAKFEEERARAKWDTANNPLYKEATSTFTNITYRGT

| Molecule | % Change from baseline in the number of scratchings (mean ± standard error) [1] | IC50 (integrin αvβ3 [2]) | grade of effect on % change from the baseline in the number of scratchings [1] | cell adhesion inhibitory effect (in words) (integrin αvβ3 [2]) | inhibition of binding between integrin αvβ3 and vitronectin (integrin αvβ3 [3]) | pruritus (IL-31 receptor) | skin inflammation (IL-31 receptor) |
| --- | --- | --- | --- | --- | --- | --- | --- |
| CC(C)[C@H]1C(=O)N[C@@H](CCCNC(=N)N)C(=O)NCC(=O)N[C@@H](CC(=O)O)C(=O)N[C@H](Cc2ccccc2)C(=O)N1C [Cilengitide, 2-((2S,5R,8S,11S)-5-benzyl-11-(3-guanidinopropyl)-8-isopropyl-7-methyl-3,6,9,12,15-pentaoxo-1,4,7,10,13-pentaazacyclopentadecan-2-yl)acetic acid] | −31.7 ± 17.8% |  |  |  |  |  |  |
| O=C(O)C[C@H]1Cc2ccc(OCCCNc3ccccn3)cc2CN(CC(F)(F)F)C1=O [SB-267268 enantiomer, (R)-2-(3-oxo-8-(3-(pyridin-2-ylamino)propoxy)-2-(2,2,2-trifluoroethyl)-2,3,4,5-tetrahydro-1H-benzo[c]azepin-4-yl)acetic acid] | +45.5 ± 28.8% | ≥ 1000 nM |  |  |  |  |  |
| O=C(O)C[C@@H]1Cc2ccc(OCCCNc3ccccn3)cc2CN(CC(F)(F)F)C1=O [SB-267268, (S)-2-(3-oxo-8-(3-(pyridin-2-ylamino)propoxy)-2-(2,2,2-trifluoroethyl)-2,3,4,5-tetrahydro-1H-benzo[c]azepin-4-yl)acetic acid] | −5.5 ± 13.4% | ≤ 20 nM | − (mean change from the baseline was −60% or less at a P-value of 0.05 or higher) | moderate |  |  |  |
| O=C(NC[C@H](NS(=O)(=O)c1ccccc1)C(=O)O)c1ccc(N2CCC[C@H](NC3=NCCCN3)C2)cc1F [CP derivative 7, (S)-3-(2-fluoro-4-((S)-3-((1,4,5,6-tetrahydropyrimidin-2-yl)amino)piperidin-1-yl)benzamido)-2-(phenylsulfonamido)propanoic acid] | −52.0 ± 26.6% | ≤ 1 nM | − (mean change from the baseline was −60% or less at a P-value of 0.05 or higher) | high |  |  |  |
| CNc1cccc(CCOc2ccc3c(c2)CN(CC(F)(F)F)C(=O)[C@H](CC(=O)O)C3)n1 [SB-273005, (S)-2-(8-(2-(6-(methylamino)pyridin-2-yl)ethoxy)-3-oxo-2-(2,2,2-trifluoroethyl)-2,3,4,5-tetrahydro-1H-benzo[c]azepin-4-yl)acetic acid] | −33.0 ± 11.6% | ≤ 20 nM | + (mean change from the baseline was −60% or less at a P-value of less than 0.05) | moderate |  |  |  |
| N=C(N)Nc1cccc(C(=O)NCC(=O)NC(CC(=O)O)c2cc(Cl)cc(Cl)c2)c1 (centres unmarked) [SC-68448, 3-(3,5-Dichlorophenyl)-3-(2-(3-guanidinobenzamido)acetamido)propanoic acid] | −83.8 ± 7.7% |  | ++ (mean change from the baseline was −65% or more at a P-value of less than 0.01) | moderate | inhibit binding |  |  |
| O=C(NC[C@H](NS(=O)(=O)c1ccccc1)C(=O)O)c1ccc(N2CCC(NC3=NCCCN3)CC2)c(F)c1 [CP derivative 2, (S)-3-(3-fluoro-4-(4-((1,4,5,6-tetrahydropyrimidin-2-yl)amino)piperidin-1-yl)benzamido)-2-(phenylsulfonamido)propanoic acid] | −30.2 ± 18.6% | ≤ 1 nM | − (mean change from the baseline was −60% or less at a P-value of 0.05 or higher) | high |  |  |  |
| Cc1cc(C)c(S(=O)(=O)N[C@@H](CNC(=O)c2ccc3c(cnn3CCCNc3ncc[nH]3)c2)C(=O)O)c(C)c1 [SM-256, (S)-3-(1-(3-((1H-imidazol-2-yl)amino)propyl)-1H-indazole-5-carboxamido)-2-((2,4,6-trimethylphenyl)sulfonamido)propanoic acid] | −22.5 ± 19.6% | ≤ 100 nM |  | low |  |  |  |
| O=C(NC[C@H](NS(=O)(=O)c1cccs1)C(=O)O)c1ccc(N2CCC[C@H](NC3=NCCCN3)C2)cc1 [CP derivative 9, (S)-3-(4-((S)-3-((1,4,5,6-tetrahydropyrimidin-2-yl)amino)piperidin-1-yl)benzamido)-2-(thiophene-2-sulfonamido)propanoic acid] | −24.5 ± 19.9% | ≤ 1 nM | − (mean change from the baseline was −60% or less at a P-value of 0.05 or higher) | high |  |  |  |
| CC(C)COC(=O)N[C@@H](CCC(=O)N1CCN(c2cccc(NC3=NCC(F)CN3)c2)CC1)C(=O)O (stereo partly drawn) [BS-1417, (2S)-5-(4-(3-((5-fluoro-1,4,5,6-tetrahydropyrimidin-2-yl)amino)phenyl)piperazin-1-yl)-2-((isobutoxycarbonyl)amino)-5-oxopentanoic acid] | −43.3 ± 11.9% | ≥ 1000 nM | + (mean change from the baseline was −60% or less at a P-value of less than 0.05) |  |  |  |  |
| B1 |  |  |  |  |  | improve pruritus | improving effect on skin inflammation |
